Measurements from patent US20150353626A1, “APOLIPOPROTEIN A-I DERIVED PEPTIDES FOR TREATMENT OF HYPERGLYCAEMIA” (priority 2013, published 2015).

Tests used:
Akt = assay: Western blot for phosphorylated Akt in L6 myotube lysates; format: cell-based; details: L6 myotubes, 60 minutes
Experimental: Prior to stimulation or treatment cultured myoblast cells were serum starved for 4 hours in serum-free α-MEM and all subsequent treatments, including insulin or phenformin as positive controls (Sigma), were performed in serum free a-MEM. After treatments, cells were washed with ice cold PBS buffer and lysed on ice using a non-denaturing lysis buffer (1% Triton X-100, 50 mmol/l Tris, 150 mmol/l NaCl, pH 8.0) containing protease and phosphatase inhibitors (Roche). Lysates were centrifuged at 16,000×g, 20 minutes at 4° C. and BCA protein assay (Pierce) was performed on supernatants. Equal protein amounts were separated by SDS-PAGE and transferred to nitrocellulose membranes. pAMPK, AMPK, pACC, pAkt, Akt and tubulin were used for immunodetection with IRDye 800CW and 680RD secondary antibodies (LI-COR). Blots were imaged using the Odyssey Fc system and quantified using Image studio v2.0 software.
To dissect the effect of discoidal rHDL on a non-insulin dependent signaling pathway, we conducted western blotting using lysates from L6 myotubes incubated with rHDL. […] Phenformin was used as a positive control, inducing a 1.98±0.33-fold (p=≦0.05) and 2.7±0.74-fold (p=≦0.05) elevation of phosphorylated AMPK and ACC, respectively, at a concentration of 0.4 mmol/l. […] For clarity 1 nmol/l insulin (n=2) and 100 nmol/l insulin (n=3) (51±12.5-fold; p=≦0.01) was plotted in FIG. 3e. Representative immunoblots of those quantified for FIGS. 3a, c and f are given in FIGS. 3b, d and e, respectively.
The effect of the peptide fragment 190-243 of human Apo A-I (SEQ ID NO: 1) on a non-insulin dependent signaling pathway, was tested using lysates from L6 myotubes as described above for rHDL. Myotubes were serum starved for 4 hours then treated for 60 minutes with 2, 10 or 20 μmol/l of 190-243 peptide, 1 mmol/l phenformin, 100 nmol/l insulin, or control (C) followed by western blot analysis for phosphorylated AMPK (AMP-activated protein kinase) or phosphorylated Akt. Tubulin was used as loading control. Blots shown are representative of three independent experiments.

L6 myotubes = assay: Glucose uptake in L6 myotubes (2-[3H]-deoxy-D-glucose); format: cell-based
Experimental: L6 myoblasts (ATCC #CRL-1458) were grown in α-MEM (Invitrogen) supplemented with 10% FBS (Sigma) and 1% antibiotic/antimycotic (Penicillin, streptomycin, amphotericin B; Invitrogen). Differentiation to myotubes was achieved by switching from growth media to 2% FBS a-MEM for 6-7 or 6-12 days. Cells were maintained at 37° C. and 5% CO2.
Prior to stimulation (or treatment) cells were starved for 2 hours in serum-free a-MEM and all subsequent treatments, which were performed in triplicate and included cytochalasin B (Sigma) as a measure of cell associated non-specific radioactivity, were performed in uptake buffer (140 mmol/l NaCl, 20 mmol/l HEPES, 5 mmol/l KCl, 2.5 mmol/l MgSO4, 1 mmol/l CaCl2, pH 7.4). After stimulation, treatments were replaced with 10 μmol/l 2-deoxy-D-glucose (Sigma), 10 μmol/l 2-[3H]-deoxy-D-glucose (Perkin Elmer) in uptake buffer for 15 mins at room temperature. Cells were then washed twice with ice cold PBS and lysed with 1 mol/l NaOH on ice. Lysates were collected and radioactivity quantified by scintillation counting.
In order to investigate the effect of discodial HDL (rHDL) on GLUT4 translocation and glucose uptake, we produced recombinant human apoA-I and reconstituted HDL needed for cell incubations. L6 myotubes were incubated with 50 μg/ml (1.6 μmol/l) apoA-I for 1 hour followed by a glucose uptake assay as described above. […] Next, L6 myotubes were treated by incubation with 50 μg/ml discodial rHDL (expressed as total concentration of apoA-I in rHDL, given 2 apoA-I molecules per particle) for 1 hour. […] This experiment was thereafter repeated in more controlled manner including cell number and quality (cells were similarly treated during differentiation from myoblasts to multinuclear myotubes, with respect to the time between splitting cells, cell density, passage of cells used.) (FIG. 7c).
The relative effect of specific regions of apoA-I to increase glucose uptake was investigated using truncated protein fragments corresponding to residues 1-189 (N-terminal/central domain), 44-189 (central domain), 44-243 (central/C-terminal domain) and 190-243 (C-terminal domain) of full-length apoA-I (FIG. 4a). The treatments with incubation of truncated protein fragments were performed as described above for treatment of L6 myotubes with full-length apoA-I and followed by a glucose uptake assay as described above.
To test for the contribution of the constituent phospholipid to rHDL-induced glucose uptake in L6 myotubes, rHDL made with DMPC was also produced and compared to 100 nm DMPC vesicles containing no apoA-I protein. Stable 100 nm diameter vesicles can be synthesized with DMPC in the absence of apoA-I and was therefore used as a phospholipid control. The effect on the glucose uptake was tested as described above. […] To also test for the contribution of the constituent POPC phospholipid to rHDL-induced glucose uptake, rHDL made with POPC was compared with 100 nm POPC vesicles containing no apoA-I protein.

Row | Substance | Akt phosphorylation (Akt; insulin 100 nmol/l) | Akt phosphorylation (Akt; rHDL 700 μg/ml apoA-I, insulin 1 nmol/l, ± S.D.) | glucose uptake over basal/Control, repeated experiment (L6 myotubes; 2 μmol/l (60 μg/ml) POPC rHDL or 100 nmol/l insulin, 60 minutes, FIG. 7c) | glucose uptake over basal (L6 myotubes; 50 μg/ml rHDL (as apoA-I) or 100 nmol/l insulin, 1 hour, FIG. 1c, rHDL p=0.095) | increased glucose uptake (L6 myotubes; 2 h serum starved, 50 μg/ml (1.6 μmol/l) apoA-I or 100 nmol/l insulin, 1 hour, FIG. 1b) | Akt phosphorylation (in words) (Akt; 2, 10 or 20 μmol/l 190-243 peptide, FIG. 8c) | glucose uptake, fold change versus control (L6 myotubes; apoA-I fragment, 60 minutes, FIGS. 4b and 8b)
1 | insulin | 51±12.5 fold | 2.06±0.47 fold | 2.4±1.0 fold | 2.4±1.0 fold | 2 fold | – | –
2 | 190-243 polypeptide fragment: polypeptide fragment consisting of amino acids 190-243 of the full-length human apoA-I protein, C-terminal domain, 54-mer, recombinant (AEYHAKATEHLSTLSEKAKPALEDLRQGLLPVLESFKVSFLSALEEYTKKLNTQ; listed as Homo Sapiens) | – | – | – | – | – | unaffected | 1.77±0.23 fold
